The record followed here is patent US8691865B2 (AbbVie Inc., priority 2008, dated 2014).

The first assay deals with human Cav2.2 (Homo sapiens, UniProt Q00975). The assay can be described thus: Assessment of calcium channel activity using FLIPR (Ca2+ influx in IMR32 cells). It counts as cell-based.
Chain of human Cav2.2 (Q00975 whole entry): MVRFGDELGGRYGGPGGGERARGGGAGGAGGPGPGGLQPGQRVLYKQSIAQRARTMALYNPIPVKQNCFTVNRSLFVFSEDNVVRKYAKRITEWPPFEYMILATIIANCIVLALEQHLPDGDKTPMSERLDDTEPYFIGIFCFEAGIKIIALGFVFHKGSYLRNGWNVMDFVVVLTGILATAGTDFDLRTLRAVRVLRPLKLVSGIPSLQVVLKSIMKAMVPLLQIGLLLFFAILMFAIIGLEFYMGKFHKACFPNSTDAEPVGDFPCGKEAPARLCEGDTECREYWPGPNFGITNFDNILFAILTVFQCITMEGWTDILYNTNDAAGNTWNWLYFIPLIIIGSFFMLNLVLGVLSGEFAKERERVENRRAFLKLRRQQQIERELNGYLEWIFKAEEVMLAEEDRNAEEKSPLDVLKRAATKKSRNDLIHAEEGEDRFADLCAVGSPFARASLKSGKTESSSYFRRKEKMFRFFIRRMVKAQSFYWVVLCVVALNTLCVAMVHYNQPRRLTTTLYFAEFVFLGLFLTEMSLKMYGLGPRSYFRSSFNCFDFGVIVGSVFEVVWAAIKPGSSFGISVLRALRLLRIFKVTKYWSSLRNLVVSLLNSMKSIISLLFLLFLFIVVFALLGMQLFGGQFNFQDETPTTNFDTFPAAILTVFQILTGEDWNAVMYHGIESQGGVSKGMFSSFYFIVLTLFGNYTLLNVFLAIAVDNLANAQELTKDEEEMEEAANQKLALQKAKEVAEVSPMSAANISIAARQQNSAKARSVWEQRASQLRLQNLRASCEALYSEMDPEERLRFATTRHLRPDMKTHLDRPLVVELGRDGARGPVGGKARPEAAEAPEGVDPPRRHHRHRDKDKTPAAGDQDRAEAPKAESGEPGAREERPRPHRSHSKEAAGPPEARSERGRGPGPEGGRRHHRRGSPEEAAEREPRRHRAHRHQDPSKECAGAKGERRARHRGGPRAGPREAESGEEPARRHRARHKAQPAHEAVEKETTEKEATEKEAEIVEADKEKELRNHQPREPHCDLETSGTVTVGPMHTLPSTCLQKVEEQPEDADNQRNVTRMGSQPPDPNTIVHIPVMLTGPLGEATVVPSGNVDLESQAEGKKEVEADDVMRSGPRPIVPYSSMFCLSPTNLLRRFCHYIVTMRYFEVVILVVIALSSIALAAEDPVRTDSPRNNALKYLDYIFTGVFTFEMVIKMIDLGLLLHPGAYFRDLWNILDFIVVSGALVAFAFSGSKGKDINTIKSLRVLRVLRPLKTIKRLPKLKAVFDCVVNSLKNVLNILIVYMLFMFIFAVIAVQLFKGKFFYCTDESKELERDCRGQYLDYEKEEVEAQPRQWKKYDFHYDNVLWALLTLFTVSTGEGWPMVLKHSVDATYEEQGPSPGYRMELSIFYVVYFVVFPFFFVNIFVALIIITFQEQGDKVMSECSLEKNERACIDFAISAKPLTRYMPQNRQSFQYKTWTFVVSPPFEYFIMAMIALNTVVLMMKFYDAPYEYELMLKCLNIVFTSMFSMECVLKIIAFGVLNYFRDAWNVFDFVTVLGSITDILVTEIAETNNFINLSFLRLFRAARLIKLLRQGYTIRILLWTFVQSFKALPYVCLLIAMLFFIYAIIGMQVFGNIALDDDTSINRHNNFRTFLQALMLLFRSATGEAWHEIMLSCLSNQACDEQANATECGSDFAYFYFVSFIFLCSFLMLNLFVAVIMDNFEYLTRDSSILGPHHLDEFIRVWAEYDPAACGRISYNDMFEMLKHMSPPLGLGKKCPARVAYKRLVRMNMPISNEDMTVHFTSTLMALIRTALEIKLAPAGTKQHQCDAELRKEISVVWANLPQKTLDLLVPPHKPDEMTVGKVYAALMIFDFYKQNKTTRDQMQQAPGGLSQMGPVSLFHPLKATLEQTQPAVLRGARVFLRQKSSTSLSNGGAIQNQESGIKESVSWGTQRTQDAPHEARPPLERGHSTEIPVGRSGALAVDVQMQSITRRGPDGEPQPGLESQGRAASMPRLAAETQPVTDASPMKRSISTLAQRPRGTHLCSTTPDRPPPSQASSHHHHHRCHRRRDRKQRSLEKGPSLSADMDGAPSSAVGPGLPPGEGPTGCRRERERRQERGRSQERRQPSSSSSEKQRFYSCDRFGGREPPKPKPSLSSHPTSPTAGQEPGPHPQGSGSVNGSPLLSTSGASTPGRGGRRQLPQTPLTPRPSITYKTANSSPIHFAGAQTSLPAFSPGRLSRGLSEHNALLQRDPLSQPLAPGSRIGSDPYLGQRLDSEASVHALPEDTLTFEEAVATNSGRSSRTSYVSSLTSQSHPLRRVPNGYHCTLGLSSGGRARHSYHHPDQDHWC
Chain of human Cav2.2 (P54289 25-956 partner limits assumed): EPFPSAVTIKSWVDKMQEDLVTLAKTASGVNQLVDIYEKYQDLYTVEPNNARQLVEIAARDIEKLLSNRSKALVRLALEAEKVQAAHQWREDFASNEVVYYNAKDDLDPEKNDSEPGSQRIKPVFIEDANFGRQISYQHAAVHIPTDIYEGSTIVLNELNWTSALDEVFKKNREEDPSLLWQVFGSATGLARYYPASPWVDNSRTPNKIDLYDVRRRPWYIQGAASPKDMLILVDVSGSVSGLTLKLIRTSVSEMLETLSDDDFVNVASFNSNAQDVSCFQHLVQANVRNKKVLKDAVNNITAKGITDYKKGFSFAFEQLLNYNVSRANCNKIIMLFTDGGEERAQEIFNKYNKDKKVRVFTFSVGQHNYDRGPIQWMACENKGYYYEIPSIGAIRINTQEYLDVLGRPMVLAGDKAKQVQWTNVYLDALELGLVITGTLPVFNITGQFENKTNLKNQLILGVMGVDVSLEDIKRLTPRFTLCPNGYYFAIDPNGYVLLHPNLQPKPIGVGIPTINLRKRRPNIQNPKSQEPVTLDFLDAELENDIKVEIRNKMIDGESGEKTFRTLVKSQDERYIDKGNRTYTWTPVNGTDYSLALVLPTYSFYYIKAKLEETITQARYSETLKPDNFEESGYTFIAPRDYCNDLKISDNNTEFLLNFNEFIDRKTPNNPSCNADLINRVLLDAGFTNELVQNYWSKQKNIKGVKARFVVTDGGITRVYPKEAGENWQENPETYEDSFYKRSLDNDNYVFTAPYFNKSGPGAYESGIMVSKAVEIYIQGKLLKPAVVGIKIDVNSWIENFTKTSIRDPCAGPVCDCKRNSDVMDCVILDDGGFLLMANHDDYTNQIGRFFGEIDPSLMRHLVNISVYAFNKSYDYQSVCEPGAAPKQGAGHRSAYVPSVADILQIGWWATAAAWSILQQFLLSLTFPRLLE
Chain of human Cav2.2 (P54289 957-1103 partner limits assumed): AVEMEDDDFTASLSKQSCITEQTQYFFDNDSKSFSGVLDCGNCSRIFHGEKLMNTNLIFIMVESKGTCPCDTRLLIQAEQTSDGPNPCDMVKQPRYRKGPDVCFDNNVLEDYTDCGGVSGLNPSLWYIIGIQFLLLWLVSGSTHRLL
Chain of human Cav2.2 (P54284 whole entry partner): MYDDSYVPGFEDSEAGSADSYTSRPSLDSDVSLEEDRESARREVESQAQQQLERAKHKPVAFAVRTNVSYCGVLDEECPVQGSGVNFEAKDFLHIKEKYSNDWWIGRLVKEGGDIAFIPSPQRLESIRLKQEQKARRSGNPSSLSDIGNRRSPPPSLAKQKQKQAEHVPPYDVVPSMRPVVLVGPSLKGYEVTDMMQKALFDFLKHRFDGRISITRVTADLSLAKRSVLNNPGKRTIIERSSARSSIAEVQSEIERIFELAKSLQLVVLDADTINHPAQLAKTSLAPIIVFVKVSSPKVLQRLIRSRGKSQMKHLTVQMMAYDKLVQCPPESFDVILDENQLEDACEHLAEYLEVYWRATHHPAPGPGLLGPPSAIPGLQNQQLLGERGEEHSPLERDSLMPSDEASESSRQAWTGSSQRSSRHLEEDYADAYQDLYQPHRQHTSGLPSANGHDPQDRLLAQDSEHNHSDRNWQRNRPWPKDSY
Details: not given
In short, it runs like this: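 Human neuroblastoma IMR32 cells were seeded at 1−1.2×10^5 cells/well and cultured 48 h at 37 °C before FLIPR calcium influx measurement. Percent inhibition at each concentration was calculated against the no-inhibitor signal, and IC50 came from sigmoidal dose-response fits.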
Consider `CN[C@@H](CC(C)(C)C)C(=O)N[C@H]1CC[C@@H]2CN(Cc3ccccc3)C[C@@H]21` [Example 355, N^1-[(3aR,4S,6aS)-2-benzyloctahydrocyclopenta[c]pyrrol-4-yl]-N^2,4-dimethyl-L-leucinamide], for which the IC50 (commonly the midpoint of a concentration-inhibition curve) was over 30 µM.
Same read-out and setting: with `CC(C)(C)[C@H](N)C(=O)N[C@@H]1CC[C@H]2CN(Cc3ccccc3)C[C@H]21` [Example 356, N^1-[(3aS,4R,6aR)-2-benzyloctahydrocyclopenta[c]pyrrol-4-yl]-3-methyl-L-valinamide] the figure was over 30 µM; with `CC(C)(C)[C@H](N)C(=O)N[C@H]1CC[C@@H]2CN(Cc3ccccc3)C[C@@H]21` [Example 357, N^1-[(3aR,4S,6aS)-2-benzyloctahydrocyclopenta[c]pyrrol-4-yl]-3-methyl-L-valinamide], over 30 µM; with `CCC[C@H](NC)C(=O)N[C@H]1CC[C@H]2CN(Cc3ccccc3)C[C@H]21` [Example 359, N^1-[(3aS,4S,6aR)-2-benzyloctahydrocyclopenta[c]pyrrol-4-yl]-N^2-methyl-L-norvalinamide], over 30 µM.
The same measure, in the same setting: in the case of `CN[C@@H](CC(C)C)C(=O)N[C@H]1CC[C@H]2CN(Cc3ccccc3)C[C@H]21` [Example 360, N^1-[(3aS,4S,6aR)-2-benzyloctahydrocyclopenta[c]pyrrol-4-yl]-N^2-methyl-L-leucinamide] it was over 30 µM; in that of `CCCC[C@H](NC)C(=O)N[C@H]1CC[C@@H]2CN(Cc3ccccc3)C[C@@H]21` [Example 362, N^1-[(3aR,4S,6aS)-2-benzyloctahydrocyclopenta[c]pyrrol-4-yl]-N^2-methyl-L-norleucinamide], over 30 µM.
The same measure, in the same setting: in the case of `CCC[C@H](NC)C(=O)N[C@@H]1CC[C@@H]2CN(Cc3ccccc3)C[C@@H]21` [Example 363, N^1-[(3aR,4R,6aS)-2-benzyloctahydrocyclopenta[c]pyrrol-4-yl]-N^2-methyl-L-norvalinamide] it was over 30 µM; in that of `CCC[C@H](NC)C(=O)N[C@H]1CC[C@@H]2CN(Cc3ccccc3)C[C@@H]21` [Example 365, N^1-[(3aR,4S,6aS)-2-benzyloctahydrocyclopenta[c]pyrrol-4-yl]-N^2-methyl-L-norvalinamide], over 30 µM.
For `CN[C@H](C(=O)N[C@@H]1CC[C@H]2CN(Cc3ccc(F)cc3)C[C@H]21)C(C)C` [Example 369, N^1-[(3aS,4R,6aR)-2-(4-fluorobenzyl)octahydrocyclopenta[c]pyrrol-4-yl]-N^2-methyl-L-valinamide], the IC50 is over 16.4 µM.
As to `CCC[C@H](NC)C(=O)N[C@@H]1CC[C@H]2CN(Cc3ccc(C(F)(F)F)cc3)C[C@H]21` [Example 371, N^2-methyl-N^1-{(3aS,4R,6aR)-2-[4-(trifluoromethyl)benzyl]octahydrocyclopenta[c]pyrrol-4-yl}-L-norvalinamide], the IC50 was determined as 8.88 µM.
Still for that read-out and setting: in the case of `CCC[C@H](NC)C(=O)N[C@@H]1CC[C@H]2CN(Cc3ccc(F)cc3)C[C@H]21` [Example 372, N^1-[(3aS,4R,6aR)-2-(4-fluorobenzyl)octahydrocyclopenta[c]pyrrol-4-yl]-N^2-methyl-L-norvalinamide] it was over 9 µM; in that of `CN[C@@H](CC(C)C)C(=O)N[C@H]1CC[C@@H]2CN(Cc3ccc(F)cc3)C[C@@H]21` [Example 381, N^1-[(3aR,4S,6aS)-2-(4-fluorobenzyl)octahydrocyclopenta[c]pyrrol-4-yl]-N^2-methyl-L-leucinamide], over 30 µM; in that of `O=C(N[C@H]1CC[C@@H]2CN(S(=O)(=O)c3cccc(C(F)(F)F)c3)C[C@@H]21)[C@@H]1CCCN1` [Example 387, N-((3aR,4S,6aS)-2-{[3-(trifluoromethyl)phenyl]sulfonyl}octahydrocyclopenta[c]pyrrol-4-yl)-L-prolinamide], 5.87 µM.
`CN[C@H](C(=O)N[C@H]1CC[C@@H]2CN(S(=O)(=O)c3cccc(C(F)(F)F)c3)C[C@@H]21)C(C)C` [Example 389, N^2-methyl-N^1-((3aR,4S,6aS)-2-{[3-(trifluoromethyl)phenyl]sulfonyl}octahydrocyclopenta[c]pyrrol-4-yl)-L-valinamide]: the IC50 was found to be 1.48 µM.
Same read-out and setting: in the case of `CC(C)(C)C[C@H](N)C(=O)N[C@H]1CC[C@@H]2CN(S(=O)(=O)c3cccc(C(F)(F)F)c3)C[C@@H]21` [Example 392, 4-methyl-N^1-((3aR,4S,6aS)-2-{[3-(trifluoromethyl)phenyl]sulfonyl}octahydrocyclopenta[c]pyrrol-4-yl)-L-leucinamide] it was 0.95 µM.
On to `CC[C@H](C)[C@H](NC)C(=O)N[C@H]1CC[C@@H]2CN(S(=O)(=O)c3ccc(C(F)(F)F)cc3)C[C@@H]21` [Example 411, N^2-methyl-N^1-((3aR,4S,6aS)-2-{[4-(trifluoromethyl)phenyl]sulfonyl}octahydrocyclopenta[c]pyrrol-4-yl)-L-isoleucinamide], for which the IC50 was determined as 2.31 µM.
On the same count and under the same terms, with `CN[C@@H](CC(C)(C)C)C(=O)N[C@H]1CC[C@@H]2CN(S(=O)(=O)c3ccc(C(F)(F)F)cc3)C[C@@H]21` [Example 415, N^2,4-dimethyl-N^1-((3aR,4S,6aS)-2-{[4-(trifluoromethyl)phenyl]sulfonyl}octahydrocyclopenta[c]pyrrol-4-yl)-L-leucinamide] the figure was 1.31 µM.
On to `CCC[C@H](N)C(=O)N[C@H]1CC[C@@H]2CN(S(=O)(=O)c3ccc(C(F)(F)F)cc3)C[C@@H]21` [Example 422, N^1-((3aR,4S,6aS)-2-{[4-(trifluoromethyl)phenyl]sulfonyl}octahydrocyclopenta[c]pyrrol-4-yl)-L-norvalinamide], for which the IC50 was 7.83 µM.
For `CCC[C@H](N)C(=O)N[C@@H]1CC[C@H]2CN(S(=O)(=O)c3ccc(C(F)(F)F)cc3)C[C@H]21` [Example 423, N^1-((3aS,4R,6aR)-2-{[4-(trifluoromethyl)phenyl]sulfonyl}octahydrocyclopenta[c]pyrrol-4-yl)-L-norvalinamide], the IC50 turned out to be 6.46 µM.

Staying with this assay, now noted: read-out: IC50 (μM) or percent inhibition (* indicates 3 minute incubation, otherwise 60 minute); IC50; 60 minute pre-incubation with compound; IMR32 cells, 80 mM KCl depolarization.
Regarding `CC(C)(C)C[C@H](N)C(=O)N[C@H]1CC[C@@H]2CN(Cc3ccccc3)C[C@@H]21` [Example 361, N^1-[(3aR,4S,6aS)-2-benzyloctahydrocyclopenta[c]pyrrol-4-yl]-4-methyl-L-leucinamide], the IC50 turned out to be 24.7 µM.
Regarding `O=C(N[C@@H]1CC[C@H]2CN(Cc3ccc(F)cc3)C[C@H]21)[C@@H]1CCCCN1` [Example 368, (2S)-N-[(3aS,4R,6aR)-2-(4-fluorobenzyl)octahydrocyclopenta[c]pyrrol-4-yl]piperidine-2-carboxamide], the half-maximal inhibitory concentration (IC50) was 12.4 µM.
Turning to `CCC[C@H](NC)C(=O)N[C@H]1CC[C@@H]2CN(Cc3cccc(C(F)(F)F)c3)C[C@@H]21` [Example 376, N^2-methyl-N^1-{(3aR,4S,6aS)-2-[3-(trifluoromethyl)benzyl]octahydrocyclopenta[c]pyrrol-4-yl}-L-norvalinamide], the IC50 turned out to be 10.6 µM.
On the same count and under the same terms, in the case of `CCC[C@H](NC)C(=O)N[C@H]1CC[C@@H]2CN(Cc3ccc(C(F)(F)F)cc3)C[C@@H]21` [Example 377, N^2-methyl-N^1-{(3aR,4S,6aS)-2-[4-(trifluoromethyl)benzyl]octahydrocyclopenta[c]pyrrol-4-yl}-L-norvalinamide] it was 13.3 µM; in that of `CN[C@@H](CC(C)C)C(=O)N[C@H]1CC[C@@H]2CN(Cc3cccc(C(F)(F)F)c3)C[C@@H]21` [Example 379, N^2-methyl-N^1-{(3aR,4S,6aS)-2-[3-(trifluoromethyl)benzyl]octahydrocyclopenta[c]pyrrol-4-yl}-L-leucinamide], 8.6 µM.
In the case of `CN[C@@H](CC(C)C)C(=O)N[C@H]1CC[C@@H]2CN(Cc3ccc(C(F)(F)F)cc3)C[C@@H]21` [Example 380, N^2-methyl-N^1-{(3aR,4S,6aS)-2-[4-(trifluoromethyl)benzyl]octahydrocyclopenta[c]pyrrol-4-yl}-L-leucinamide], the IC50 worked out at 9.71 µM.
As for `CCC[C@H](N)C(=O)N[C@H]1CC[C@@H]2CN(Cc3ccc(C(F)(F)F)cc3)C[C@@H]21` [Example 382, N^1-{(3aR,4S,6aS)-2-[4-(trifluoromethyl)benzyl]octahydrocyclopenta[c]pyrrol-4-yl}-L-norvalinamide], the IC50 came out at 14.4 µM.
In the case of `O=C(N[C@H]1CC[C@@H]2CN(S(=O)(=O)c3cccc(C(F)(F)F)c3)C[C@@H]21)[C@@H]1Cc2ccccc2CN1` [Example 391, (3S)-N-((3aR,4S,6aS)-2-{[3-(trifluoromethyl)phenyl]sulfonyl}octahydrocyclopenta[c]pyrrol-4-yl)-1,2,3,4-tetrahydroisoquinoline-3-carboxamide], the IC50 came to 1.45 µM.
On the same count and under the same terms, with `CC(C)[C@H](N)CC(=O)N[C@@H]1CC[C@H]2CN(S(=O)(=O)c3cccc(C(F)(F)F)c3)C[C@H]21` [Example 397, (3R)-3-amino-4-methyl-N-((3aS,4R,6aR)-2-{[3-(trifluoromethyl)phenyl]sulfonyl}octahydrocyclopenta[c]pyrrol-4-yl)pentanamide] the figure was 1.46 µM.
On the same count and under the same terms, in the case of `O=C(N[C@@H]1CC[C@H]2CN(S(=O)(=O)c3ccc(F)cc3)C[C@H]21)[C@@H]1CCCCN1` [Example 399, (2S)-N-{(3aS,4R,6aR)-2-[(4-fluorophenyl)sulfonyl]octahydrocyclopenta[c]pyrrol-4-yl}piperidine-2-carboxamide] it was 15.3 µM; in that of `CCC[C@H](NC)C(=O)N[C@@H]1CC[C@H]2CN(S(=O)(=O)c3ccc(F)cc3)C[C@H]21` [Example 403, N^1-{(3aS,4R,6aR)-2-[(4-fluorophenyl)sulfonyl]octahydrocyclopenta[c]pyrrol-4-yl}-N^2-methyl-L-norvalinamide], 8.65 µM.
The same measure, in the same setting: in the case of `CCC[C@H](NC)C(=O)N[C@H]1CC[C@@H]2CN(S(=O)(=O)c3ccc(C(F)(F)F)cc3)C[C@@H]21` [Example 405, N^2-methyl-N^1-((3aR,4S,6aS)-2-{[4-(trifluoromethyl)phenyl]sulfonyl}octahydrocyclopenta[c]pyrrol-4-yl)-L-norvalinamide] it was 3.83 µM.
